Reference: patent publication US20100247461A1, “ANTI-INFLAMMATORY COMPLEXES” (Signum Biosciences, Inc., priority 2009, published 2010)
Converted amounts (≈) assume the structure as drawn.

Tests used:
[1] = tested on: mouse skin reepithelialization; test: Mouse wound healing model - skin reepithelialization; format: in vivo
Text: The healing of wounded skin is mediated by epidermal reepithelialization that requires keratinocyte migration. Glucocorticoids are known to inhibit wound healing (Ehrlich et al., Proc Soc Exp Biol Med, 1971, 137: 936-938; Leibovich et al., Am J Pathol, 1975, 78, 71-100). […] The methods for studying mouse skin reepithelialization using both partial and full thickness mouse wound healing models have been described elsewhere (Kim et al. Wound Repair Regen, 2001, 9: 386-390). In brief, for partial thickness wounds, a 3 mm-diameter circle of epidermis is removed from the ventral auricle. The resulting wound is cleansed and dressed with an occlusive polyurethane film. The mouse ears are excised on days 3, 5, 8, and 11 post-operation and fixed in 10% buffered formalin. Following day 8 post-operation, sampling of treated mice is performed to determine completion of healing. For full thickness wounds, mice heads are shaved and depilated prior to excising the skin. The cleaned and dressed wounds are harvested and fixed at days 3, 5, 8 and 10 and fixed in 10% buffered formalin.

[2] = tested on: TPA-treated mouse ears (edema, ear thickness); test: TPA mouse ear model of inflammation - edema inhibition; format: in vivo; settings: topical, 24 hours
[3] = tested on: TPA-treated mouse ears (erythema, Δa* redness); test: TPA mouse ear model of inflammation - erythema inhibition; format: in vivo; settings: topical, 24 hours
Procedure: The protocol for measuring erythema inhibition by provided complexes was developed in-house by utilizing the CR-400 chroma meter from Konica Minolta (2). This instrument was used to measure the Δa*redness value from 6 mm biopsy punches taken 24 hours post TPA/compound treatment as described in the edema inhibition section above. […] These values were corrected for the Δa* value of non TPA-treated mouse ears of littermate controls.

[4] = tested on: Propionibacterium acnes (strain ATCC 6919); test: Inhibition of Propionibacterium acnes growth; format: cell-based; settings: Cutibacterium acnes, ATCC6919, 72 h, 72 hours, anaerobic, absorbance 600 nm, 1×10^6 CFU per mL; read-out: IC50 (inhibition of P. acnes growth)
Procedure: The assay for the inhibition of growth of Propionibacterium acnes bacteria is described elsewhere (Nakatsuji et al., J Invest Dermatol, 2009, 129: 2480-2488). In brief, the strain ATCC 6919 of P. acnes (American Type Culture Collection, Manassas, Va.) was cultured on Brucella agar (R01254, Remel, Lenexa, Kans.) supplemented with 5% (v/v) defibrinated sheep blood, vitamin K (5 mg/ml, Remel, Lenexa, Kans.), and hemin (50 mg/ml, Remel, Lenexa, Kans.), under an anaerobic condition using Gas-Pak (BD, Sparks, Md.) at 37° C. A single colony was inoculated in Reinforced Clostridium Medium (Oxford, Hampshire, England) and cultured at 37° C. under the anaerobic condition. Each of the inventive complexes—AFC-Sr, AFC-Ag and AFC-Zn as well as AFC were dissolved in 100% (v/v) DMSO. Samples of each inventive complex, AFC and a solution of benzoyl peroxide (“BPO”) were then each incubated with an inoculum of P. acnes at a concentration of 1×10^6 CFU per mL in Reinforced Clostridium Medium in a 96-well microplate (100 μL per well) under anaerobic conditions for 72 hours. Samples of each were tested at final concentrations per well of 0.25 μg/mL, 0.5 μg/mL, 1.0 μg/mL, 1.95 μg/mL, 3.9 μg/mL, 7.8 μg/mL, 15.625 μg/mL, 31.25 μg/mL, 62.5 μg/mL, 125 μg/mL, 250μg/mL, and 500 μg/mL. A control well received only 5% (v /v) of DMSO in place of a sample of an inventive complex. After 72 hours incubation under anaerobic conditions, the P. acnes cultures in the 96-well microplate were mixed well and then absorbance readings at 600 nm were taken to determine bacterial growth. […] Growth curves of P. acnes determined for BPO, AFC, AFC-Sr, AFC-Ag and AFC-Zn are depicted in FIG. 3.

[5] = tested on: MPO activity (neutrophil infiltration) in P. acnes-injected ear; test: P. acnes-induced mouse ear model of inflammation - MPO endpoint; format: in vivo; settings: dose of 0.4 mg/20 μL
Procedure: The methods for a model of P. acnes-inflammation are described elsewhere (Nakatsuji et al., J Invest Dermatol, 2008, 128: 2451-2457).
The protocol for inducing inflammation using P. acnes bacterial challenge on the mouse ear was slightly modified from the method described previously (Natatsuji et al., 2008). Briefly, Swiss Webster (ICR, 6-8 weeks old) mouse ears were injected with living P. acnes culture intradermally. An amount of 20 μl aliquots of living P. acnes (ATCC 6919, 3×10^6 CFU) suspended in PBS was intradermally injected in the central portion of the ear. As a control, 20 μl of PBS was injected into control animals.
To assay for inhibition of dermal neutrophil infiltration by AFC complexes, a standard method was used (see Bradley et al., J Invest Dermatol, 1982,78: 206-209; Young et al., J Invest Dermatol, 1983, 80: 48-52; De Young et al, Agents Actions, 1989, 26: 335-41; and Rao et al., Inflammation, 1993, 17: 723-41). Briefly, 6mm biopsy punches taken from both compound-treated ears as well as non-treated control ears were homogenized in 400 μl of 0.5% hexadecyltrimethylammonium bromide in 50 mM potassium phosphate buffer (pH 6.0) using the Fast Prep 24 (MP Biomedicals, Solon, Ohio). Supernatants were assayed for MPO activity using a model EL 340 96-well plate reader (BioTek Instruments, Winooski, Vt.). The percent inhibition of neutrophil infiltration by each AFC complex was determined by comparing the average MPO levels in the presence and absence of these compounds. The percent inhibition of MPO was determined by taking the average MPO activity of compound-treated ears and dividing it by the average MPO activity of 12 ears that only received the P. acnes challenge and subtracting that value from 100%. These values were corrected for the MPO activity of normal, non P. acnes-treated mouse ears of littermate controls. Summary of MPO activity ranges determined from an MPO activity assay for dexamethasone (administered at a dose of 1.6 mg/20 μL), clobetasol (administered at a dose of 0.1 mg/20 μL), salicylic acid (administered at a dose of 0.4 mg/20 μL), AFC (administered at a dose of 0.4 mg/20 μL), AFC-Strontium complex (administered at a dose of 0.4 mg/20 μL) and SFC-disodium are presented in Table 4. “+” indicates a range of 0-20%, “++” indicates a range of 20-40%, and “+++” indicates >40% inhibition.

CC(=O)N[C@@H](CSC/C=C(\C)CC/C=C(\C)CCC=C(C)C)C(=O)O [AFC, N-acetyl-S-farnesyl-L-cysteine, reference compound]
effect on mouse skin reepithelialization of wounds [1]: no effects
% Edema Inhibition in the Mouse Ear Inflammation Assay (4% concentration) [2]: +++ (“+++” indicates >50% inhibition of edema)
% Erythema Inhibition in the Mouse Ear Inflammation Assay (4% concentration) [3]: ++ (“++” indicates a range of 20-40%)
IC50 [4]: 12.9 µg/mL (≈ 35.1 µM)
MPO % Inhibition [5]: +++ (“+++” indicates >40% inhibition)
